Measurements as given in PubChem BioAssay AID330 (DTP/NCI, 2004).
Inconclusive results and toxic doses are left out. Rule for the calls: active = survival T/C of 150% or more; inactive = T/C below 125% in these data.

Tested on: P388 leukemia ip, CD2F1 mice, survival T/C
Assay: NCI In Vivo Anticancer Drug Screen. Data for tumor model P388 Leukemia (intraperitoneal) in CD2F1 (CDF1) mice
Settings: endpoint: median survival time, higher = longer survival
Procedure, shortened: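 Mice carrying the transplanted tumor received test compound or vehicle. Survival was recorded in each group, and the value is the treated-group measurement divided by that of the vehicle-treated control group.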

[1] = dose: 50.0 mg/kg/injection, schedule: Q01DX005 (ip), vehicle: Klucel (hydroxypropylcellulose) (HPC)
[2] = dose: 100.0 mg/kg/injection, schedule: Q01DX005 (ip), vehicle: Klucel (hydroxypropylcellulose) (HPC)
[3] = dose: 200.0 mg/kg/injection, schedule: Q01DX005 (ip), vehicle: Klucel (hydroxypropylcellulose) (HPC)
[4] = dose: 12.5 mg/kg/injection, schedule: Q01DX009 (ip), vehicle: saline with Tween-80
[5] = dose: 25.0 mg/kg/injection, schedule: Q01DX009 (ip), vehicle: saline with Tween-80
[6] = dose: 50.0 mg/kg/injection, schedule: Q01DX009 (ip), vehicle: Klucel (hydroxypropylcellulose) (HPC)
[7] = dose: 50.0 mg/kg/injection, schedule: Q01DX009 (ip), vehicle: saline with Tween-80
[8] = dose: 60.0 mg/kg/injection, schedule: Q01DX005 (ip), vehicle: saline with Tween-80
[9] = dose: 120.0 mg/kg/injection, schedule: Q01DX005 (ip), vehicle: saline with Tween-80
[10] = dose: 240.0 mg/kg/injection, schedule: Q01DX005 (ip), vehicle: saline with Tween-80
[11] = dose: 100.0 mg/kg/injection, schedule: Q01DX009 (ip), vehicle: saline with Tween-80
[12] = dose: 50.0 mg/kg/injection, schedule: Q01DX009 (ip), vehicle: saline
[13] = dose: 50.0 mg/kg/injection, schedule: Q04DX003 (ip), vehicle: Klucel (hydroxypropylcellulose) (HPC)
[14] = dose: 100.0 mg/kg/injection, schedule: Q04DX003 (ip), vehicle: Klucel (hydroxypropylcellulose) (HPC)
[15] = dose: 200.0 mg/kg/injection, schedule: Q04DX003 (ip), vehicle: Klucel (hydroxypropylcellulose) (HPC)
[16] = dose: 400.0 mg/kg/injection, schedule: Q04DX003 (ip), vehicle: Klucel (hydroxypropylcellulose) (HPC)
[17] = dose: 200.0 mg/kg/injection, schedule: Q01DX009 (ip), vehicle: saline with Tween-80
[18] = dose: 12.5 mg/kg/injection, schedule: Q01DX009 (ip), vehicle: saline
[19] = dose: 25.0 mg/kg/injection, schedule: Q04DX003 (ip), vehicle: Klucel (hydroxypropylcellulose) (HPC)

Measured: T/C

COc1ccc(OC)c2cc3c(cc12)C(=O)c1ccccc1C3=O
inactive: [1] 87 % of control | [2] 88 % of control | [3] 91 % of control

O=C(O)c1cccc(C(=O)O)c1S(=O)Cc1ccccc1 (stereo not given)
inactive: dose: 50.0 mg/kg/injection, schedule: Q01DX005 (ip), vehicle: saline with Tween-80 102 % of control | dose: 100.0 mg/kg/injection, schedule: Q01DX005 (ip), vehicle: saline with Tween-80 93 % of control | dose: 200.0 mg/kg/injection, schedule: Q01DX005 (ip), vehicle: saline with Tween-80 105 % of control

O=C1c2cc(Cl)ccc2-c2c(NC(=O)C(Cl)Cl)cc(Cl)cc21
inactive: [4] 95 % of control | dose: 25.0 mg/kg/injection, schedule: Q01DX009 (ip), vehicle: Klucel (hydroxypropylcellulose) (HPC) 100 % of control | [5] 95 % of control | [6] 88 % of control | [7] 100 % of control

COC(=O)c1nc(=S)[nH]c(C(=O)OC)c1C(=O)c1cc(Cl)ccc1Cl
inactive: [8] 96 % of control | [9] 101 % of control | [10] 100 % of control

CCOC(=O)C(C(=O)c1ccccc1)c1cc(NS(=O)(=O)c2ccccc2)ccc1O (stereo not given)
inactive: [4] 90 % of control | [5] 100 % of control | [7] 105 % of control | dose: 75.0 mg/kg/injection, schedule: Q04DX003 (ip), vehicle: saline with Tween-80 100 % of control | dose: 150.0 mg/kg/injection, schedule: Q04DX003 (ip), vehicle: saline with Tween-80 100 % of control | dose: 300.0 mg/kg/injection, schedule: Q04DX003 (ip), vehicle: saline with Tween-80 100 % of control

O=C1CCCCC12CCCC2
inactive: dose: 87.5 mg/kg/injection, schedule: Q01DX001 (ip), vehicle: saline sonified 100 % of control | dose: 175.0 mg/kg/injection, schedule: Q01DX001 (ip), vehicle: saline sonified 100 % of control | dose: 250.0 mg/kg/injection, schedule: Q01DX001 (ip), vehicle: saline sonified 105 % of control

C=C(C)CC1CN2CCc3cc(OC)c(OC)cc3C2CC1=O (stereo not given)
inactive: [6] 106 % of control | [7] 102 % of control | dose: 100.0 mg/kg/injection, schedule: Q01DX009 (ip), vehicle: Klucel (hydroxypropylcellulose) (HPC) 104 % of control | [11] 116 % of control

O=[N+]([O-])c1cccc2nc(Cl)ccc12
inactive: dose: 25.0 mg/kg/injection, schedule: Q01DX009 (ip), vehicle: other 93 % of control | dose: 50.0 mg/kg/injection, schedule: Q01DX009 (ip), vehicle: other 93 % of control | dose: 100.0 mg/kg/injection, schedule: Q01DX009 (ip), vehicle: other 98 % of control

O=C1COc2ccccc2C(=O)C1
inactive: [12] 109 % of control | dose: 100.0 mg/kg/injection, schedule: Q01DX009 (ip), vehicle: saline 101 % of control | dose: 200.0 mg/kg/injection, schedule: Q01DX009 (ip), vehicle: saline 101 % of control

CCSC(CCC(NC(C)=O)C(=O)O)SCC (stereo not given)
inactive: [1] 98 % of control | [2] 99 % of control | [3] 91 % of control

[Br][Pd][Br].[NH-]C1CCCC2CCC[N-]C12 (stereo not given)
inactive: dose: 12.5 mg/kg/injection, schedule: Q04DX002 (ip), vehicle: saline with Tween-80 93 % of control | dose: 25.0 mg/kg/injection, schedule: Q04DX002 (ip), vehicle: saline with Tween-80 93 % of control | dose: 50.0 mg/kg/injection, schedule: Q04DX002 (ip), vehicle: saline with Tween-80 98 % of control

CCOC(=O)C1CC(=O)c2ccccc2C1 (stereo not given)
inactive: dose: 6.25 mg/kg/injection, schedule: Q01DX009 (ip), vehicle: distilled water + Tween-80 101 % of control | dose: 12.5 mg/kg/injection, schedule: Q01DX009 (ip), vehicle: distilled water + Tween-80 96 % of control | dose: 25.0 mg/kg/injection, schedule: Q01DX009 (ip), vehicle: distilled water + Tween-80 95 % of control | dose: 50.0 mg/kg/injection, schedule: Q01DX009 (ip), vehicle: distilled water + Tween-80 102 % of control | dose: 100.0 mg/kg/injection, schedule: Q01DX009 (ip), vehicle: distilled water + Tween-80 100 % of control | dose: 200.0 mg/kg/injection, schedule: Q01DX009 (ip), vehicle: distilled water + Tween-80 101 % of control | dose: 400.0 mg/kg/injection, schedule: Q01DX009 (ip), vehicle: distilled water + Tween-80 109 % of control

C=C(C)c1nn(-c2ccccc2)c2c1C(=O)CC(C)O2 (stereo not given)
inactive: [8] 98 % of control | [9] 100 % of control | [10] 98 % of control

Nc1nc(Cl)cc(=O)[nH]1
inactive: [13] 94 % of control | [14] 102 % of control | [15] 94 % of control | [16] 94 % of control

O=C(c1ccccc1)N1c2ccccc2N(C(=O)c2ccccc2)C1c1nc2ccccc2n1C(=O)c1ccccc1
inactive: [7] 109 % of control | [11] 100 % of control | [17] 102 % of control

O=C(CF)c1ccc(Cl)cc1
inactive: [7] 99 % of control | [11] 106 % of control | [17] 111 % of control

Clc1ccccc1CN1COc2c(ccc3cccnc23)C1
inactive: [14] 103 % of control | [15] 100 % of control | [16] 100 % of control

O=C(/C(O)=C/c1ccccc1)c1ccccc1
inactive: dose: 100.0 mg/kg/injection, schedule: Q04DX002 (ip), vehicle: saline with Tween-80 93 % of control | dose: 200.0 mg/kg/injection, schedule: Q04DX002 (ip), vehicle: saline with Tween-80 92 % of control | dose: 400.0 mg/kg/injection, schedule: Q04DX002 (ip), vehicle: saline with Tween-80 92 % of control

O=S1(=O)OC2(c3ccccc31)c1cc(Br)c(O)c(O)c1Oc1c2cc(Br)c(O)c1O
inactive: [18] 105 % of control | dose: 25.0 mg/kg/injection, schedule: Q01DX009 (ip), vehicle: saline 103 % of control | [12] 88 % of control

CC1(C)N=C(N)N=C(N)N1c1cccc(OCCOc2ccccc2[N+](=O)[O-])c1
inactive: [8] 104 % of control | [9] 95 % of control | [10] 98 % of control

C#CCn1c(=O)c2cc3ccccc3nc2n(CC#C)c1=O
inactive: [1] 96 % of control | [2] 93 % of control

O=C(O)c1cc(Br)c2ccccc2c1O
inactive: dose: 25.0 mg/kg/injection, schedule: Q04DX003 (ip), vehicle: saline with Tween-80 100 % of control | dose: 50.0 mg/kg/injection, schedule: Q04DX003 (ip), vehicle: saline with Tween-80 100 % of control | dose: 100.0 mg/kg/injection, schedule: Q04DX003 (ip), vehicle: saline with Tween-80 100 % of control

O=[N+]([O-])c1ccc(/C=N/NC(=S)NC23CC4CC(CC(C4)C2)C3)o1
inactive: [1] 92 % of control | [2] 103 % of control | [3] 94 % of control

NC(=S)N/N=C/c1cn(-c2ccc([N+](=O)[O-])cc2)cn1
inactive: [19] 86 % of control | [13] 86 % of control | [14] 94 % of control

CCN(CC)CCN(CC)CC.O.[Cu+2].[O-][Cl+3]([O-])([O-])O
inactive: dose: 3.12 mg/kg/injection, schedule: Q01DX009 (ip), vehicle: saline 112 % of control | dose: 6.25 mg/kg/injection, schedule: Q01DX009 (ip), vehicle: saline 100 % of control | [18] 114 % of control

CC(C)=CC[P+](CCCC[P+](CC=C(C)C)(c1ccccc1)c1ccccc1)(c1ccccc1)c1ccccc1
inactive: dose: 1.56 mg/kg/injection, schedule: Q04DX003 (ip), vehicle: saline 100 % of control | dose: 3.12 mg/kg/injection, schedule: Q04DX003 (ip), vehicle: saline 101 % of control

CCOC(=O)N1C=CC2(C=C1)CCCCC2
inactive: [19] 101 % of control | [13] 106 % of control

COc1cccc(N=Nc2c(N)nc(N)nc2N)c1
inactive: [4] 100 % of control | [5] 108 % of control | [7] 117 % of control

O=c1[nH]c2ccc(O)cc2o1
inactive: [8] 108 % of control | [9] 95 % of control | [10] 100 % of control
